Entries after “also recorded” stand apart in the source; their conditions may differ. Where a name gives a salt, the structure may show the parent alone.
Columns and labels:
[1] = system: awake guinea pig (cholinergically-induced bronchial cramps); test: inhalative provocation with acetyl-β-methylcholine chloride aerosol on awake guinea pigs (broncholytic/protective action); assay type: in vivo; conditions: for EC50: Cavia porcellus, read-out: EC50, average effective concentration w of acetyl-β-methylcholine chloride (provocation substance) after pre-treatment; for probit analysis reaction % observed: animals reacting with dyspnoea; for probit analysis reaction % calculated: probit regression
Protocol: animal strain: Pirbright white test substance: trospium chloride (MP 194) (M.W. 428) dosage: 3×10^-7 mole ml^-1 kg^-1 mode of administration: intraperitoneally test substance: dehydrotrospium chloride (WG 71) (M.W. 426) […]
reference substance: atropine hydrochloride (Serva; M.W. 325.8) […]
reference substance: isoproterenol (Fluka; M.W. 247.72) dosage: […]
further substances: acetyl-β-methylcholine chloride (Sigma; M.W. 195.7) mode of administration: 0.5 ml. min^-1 by inhalation.
The guinea pigs intended for an experiment are, after an acclimatization time of at least 8 days, subjected twice to an aerosol of 0.1% acetyl-β-methylcholine chloride solution since, as is known from experience, during the first two inhalative provocations, the animals react with more distinct respiratory disturbances than in the case of the subsequent provocations (adaptation). If, in the case of the two inhalation phases, a nonsensitivity (absence of respiratory disturbances) is observed towards the exposure, these animals are excluded from the actual experiment.
For the purpose of aerosol provocation, the guinea pigs are placed individually in an inhalation chamber (see Section 3.6 hereinafter) in which 0.5 ml. of solution per minute are atomized as droplet aerosol by means of a special nozzle (Rhema, Hofheim, Germany). […] With the help of a stopwatch, there is recorded the time from the commencement of inhalation to the appearance of the asphyctic state; the animals are immediately removed from the inhalation chamber and, as a rule, recover in a very short period of time (recovery of consciousness and normalization of breathing). If, within 180 seconds, no dysponea occurs, the inhalation is discontinued.
One aerosol concentration is tested per test day; the time between the individual aerosol provocations is at least 1 week.
The inhalation chamber is a Plexiglass container specially made for this purpose, the lid of which can be closed in an air-tight manner by means of rubber sealing and grip closure means. The internal measurements of the chamber are 285×190×180 mm., which corresponds to a volume of about 9.75 liters. The special nozzle (Rhema, Hofheim, Germany, order No. 504104) is fixed to a recess on the lid and ensures a uniform supply of the available chamber space with the aerosol. The provocation solution is supplied to the nozzle via an infusion pump (Braun, Melsungen, Germany) (0.5 ml./minute) and there atomized with a superpressure of 180 kPa from an attached pressure gas bottle (artificial air, KW-free). For reasons of safety, the aerosol provocation is carried out under a ventilator.
The EC50, as well as the related confidence interval (p>95%), are determined from the probit regression lines of the percentage values (v. supra) provided with weight coefficients after line adaptation by the "maximum likelihood" method (10 iterations). Furthermore, there is examined the adaptation of the lines to the observed data by means of the chiquadrat test. For the evaluation, a calculation programme is commercially available (Olivetti).

[2] = target: T1, isolated tracheal spirals of the guinea pig (Cavia porcellus, UniProt H0W1Z3); test: anticholinergic effectiveness on isolated tracheal spirals (antagonism against acetyl-β-methylcholine chloride); conditions: for antagonism against acetyl-β-methylcholine chloride / anticholinergic effectiveness (in words): isolated guinea pig tracheal spirals
T1 construct: the whole of the trachea is roughly freed beginning from the larynx up to the tracheal bifurcation, removed and transferred; from tissue; host or cells: isolated trachea (spiral strips) of male Pirbright white guinea pigs
From the text: A model for this is the measurement of the anticholinergic effectiveness on isolated tracheal spirals of the guinea pig.
The test substance used was 3α-benziloyloxynortropane-8-spiro-1'-pyrrolidinium chloride (trospium chloride; MP 194), ipratropium bromide being used as comparison substance.
There is to be determined the anticholinergic effectiveness of MP 194 in comparison with the reference substance ipratropium bromide on the isolated tracheal spirals of the guinea pig.
3.1.1. animal species: guinea pig
3.1.2. animal strain: Pirbright white
3.3.1. test substance (test antagonist) trospium chloride (MP 194) (M.W. 428)
3.3.2. reference substance (reference antagonist) ipratropium bromide (Atrovent) (M.W. 412.4)
3.3.3.1. acetyl-β-methylcholine chloride (Sigma) (M.W. 195.7)
The guinea pig is stunned by a blow on the neck. Subsequently, the whole of the trachea is roughly freed beginning from the larynx up to the tracheal bifurcation, removed and transferred to tempered (37° C.) and carbogenized tyrode solution. After surrounding connective tissue has been removed as far as possible, the preparation is cut up spirally by means of fine scissors at an angle of about 45° and separated into two equal sized sections. After weighing, both preparations are provided proximally and distally with a silk thread. One thread serves for fixing the preparation by means of a loop to the bottom of the bath and the other is connected via a hook with the transducer above the bath vessel.
Subsequently, the preparations, corresponding to the calibration, are prestressed with about 80 mN and equilibrated from 50-100 minutes. During the equilibration phase, the nutrient solution in the bath vessels is renewed in 15 minute intervals. As soon as the resting muscle tonus of the preparation has stabilized, there takes place the cumulative addition of the agonist, whereby the addition of the next highest concentration first takes place when no further increase of contraction is recognisable (plateau). When the maximum contraction height of the preparation is achieved, the cumulative agonist addition is ended and the preparation is rinsed. After a further equilibration phase (v. supra), the cumulative addition of the agonist is repeated but this time in the presence of the test or reference antagonist.
3.6.1. The perfusion part consists of an L-shaped organ bath in the hollow space of which (longer limb) runs a double glass spiral through which the nutrient solution is passed into the actual bath vessel (28 ml. content; shorter limb). This bath vessel is divided into two chambers which are, however, connected together by two transverse connections. […] The inlet chambers as well as the feeding glass spirals are tempered from the outside to 37° C. by a separate liquid circulation. This tempering takes place with the help of a "Colora" ultra-thermostat type K (Colora Messtechnik GmbH, Dusseldorf, Germany) which serves as thermostat and pump. In order, in case of need, always to have available ready-for-use nutrient solution, above the organ bath is provided a double-walled storage container in which the nutrient solution is also tempered and carbogenised. This is connected via a glass stopcock and a polypropylene tube with double glass spiral in the interior of the organ bath.
3.6.2. The measurement and recording part includes a transducer (Statham-Universal-Zelle UC-2; Hugo Sachs Elektronic KG, Hugstetten, Germany). By means of a hanging-in weight, a force of 40 mN is produced on the transducer which passes as electrical signal via a connecting cable to a bridge amplifier. The amplification is smoothly so regulated that the force provided corresponds to a constant value on the scale or an analogous value on the millimeter paper of the recorder (dependent upon the amplification; see below). After fixing the organ, the preparation is prestressed to the doubled mark, corresponding to 80 mN. […]

[3] = pre-treatment 3×10^-7 mol ml^-1 kg^-1 i.p., 15 min before inhalation, w of acetyl-β-methylcholine chloride in atomised solution, control animals w=0.000539, higher = more protection
[4] = acetyl-β-methylcholine chloride w=0.000562, 10 tested, pre-treatment 3×10^-7 mol ml^-1 kg^-1 i.p.
[5] = acetyl-β-methylcholine chloride w=0.000562, pre-treatment 3×10^-7 mol ml^-1 kg^-1 i.p.
[6] = acetyl-β-methylcholine chloride w=0.001000, 10 tested (isoproterenol 9), pre-treatment 3×10^-7 mol ml^-1 kg^-1 i.p.
[7] = acetyl-β-methylcholine chloride w=0.001000, pre-treatment 3×10^-7 mol ml^-1 kg^-1 i.p.
[8] = acetyl-β-methylcholine chloride w=0.001780, pre-treatment 3×10^-7 mol ml^-1 kg^-1 i.p.
[9] = acetyl-β-methylcholine chloride w=0.001780, trospium chloride 10 tested, dehydrotrospium chloride 9, atropine 9, isoproterenol 8, pre-treatment 3×10^-7 mol ml^-1 kg^-1 i.p.
[10] = acetyl-β-methylcholine chloride w=0.003160, 10 tested (isoproterenol 9), pre-treatment 3×10^-7 mol ml^-1 kg^-1 i.p.
[11] = acetyl-β-methylcholine chloride w=0.003160, pre-treatment 3×10^-7 mol ml^-1 kg^-1 i.p.
[12] = acetyl-β-methylcholine chloride w=0.005620, 10 tested (isoproterenol 9), pre-treatment 3×10^-7 mol ml^-1 kg^-1 i.p.
[13] = acetyl-β-methylcholine chloride w=0.005620, pre-treatment 3×10^-7 mol ml^-1 kg^-1 i.p.

T1 sequence (H0W1Z3 1-590): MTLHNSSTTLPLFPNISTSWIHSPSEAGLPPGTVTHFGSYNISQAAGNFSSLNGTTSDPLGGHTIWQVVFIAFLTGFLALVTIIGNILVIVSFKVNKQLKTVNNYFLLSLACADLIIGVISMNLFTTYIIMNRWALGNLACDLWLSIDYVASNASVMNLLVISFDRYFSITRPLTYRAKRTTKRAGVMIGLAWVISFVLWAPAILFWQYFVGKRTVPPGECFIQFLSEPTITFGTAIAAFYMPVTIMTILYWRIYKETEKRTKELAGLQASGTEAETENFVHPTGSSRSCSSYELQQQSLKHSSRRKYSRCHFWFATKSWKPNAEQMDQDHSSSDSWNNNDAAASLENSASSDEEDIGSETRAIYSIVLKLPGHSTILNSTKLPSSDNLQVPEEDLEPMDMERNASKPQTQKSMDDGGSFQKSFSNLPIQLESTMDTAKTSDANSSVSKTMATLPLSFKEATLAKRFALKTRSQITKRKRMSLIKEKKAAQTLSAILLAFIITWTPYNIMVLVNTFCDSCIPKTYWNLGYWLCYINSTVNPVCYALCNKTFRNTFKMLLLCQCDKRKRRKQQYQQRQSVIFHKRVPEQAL

Structure (SMILES) | EC50 [1, 3] | number of animals reacting [1, 4] | probit analysis reaction % calculated [1, 5] | number of animals reacting [1, 6] | probit analysis reaction % observed [1, 7] | probit analysis reaction % calculated [1, 7] | probit analysis reaction % observed [1, 8] | probit analysis reaction % calculated [1, 8] | number of animals reacting [1, 9] | number of animals reacting [1, 10] | probit analysis reaction % observed [1, 11] | probit analysis reaction % calculated [1, 11] | number of animals reacting [1, 12] | probit analysis reaction % observed [1, 13] | probit analysis reaction % calculated [1, 13] | further results
CN1[C@@H]2CC[C@H]1C[C@@H](OC(=O)C(CO)c1ccccc1)C2 (stereo partly shown) [atropine chloride, atropine hydrochloride, reference compound] | 1380 µg/mL | 3 | 38.93% | 6 | 60.00% | 45.98% | 55.56% | 53.16% | 5 | 5 | 50.00% | 60.20% | 7 | 70.00% | 66.95% | probit analysis reaction % observed [1, 5]: 30.00%; EC50, average effective concentration w of acetyl-β-methylcholine chloride (provocation substance) after pre-treatment [1, 3]: 0.00138; antagonism against acetyl-β-methylcholine chloride / anticholinergic effectiveness (in words) [2]: dosage dependent antagonism
O=C(O[C@H]1C[C@H]2CC[C@@H](C1)[N+]21CCCC1)C(O)(c1ccccc1)c1ccccc1 [trospium chloride, 3α-benziloyloxynortropane-8-spiro-1'-pyrrolidinium chloride] | 2860 µg/mL | 0 | 5.46% | 1 | 10.00% | 15.03% | 50.00% | 32.00% | 5 | 5 | 50.00% | 53.87% | 7 | 70.00% | 74.66% | broncholytic effectiveness compared with atropine and isoproterenol (in words) ([1]; 15 min after i.p. administration, equimolar dosages): comparable with or superior to the well known parasympatholytics atropine and the β-sympathomimetic isoproterenol; also recorded: greater effectiveness of the test substances, especially of trospium chloride, in comparison with the reference substances; probit analysis reaction % observed, correction according to Bliss ([1]; guinea pig, in vivo): 2.50; broncholytic effect (in words) ([1]; intraperitoneal, cholinergically-induced bronchial cramps, awake guinea pig): outstanding broncholytic effect; Kb ([2]; antagonism against acetyl-β-methylcholine chloride, read-out: pA2 ± s (converted)): 0.55 nM; quality of the antagonism (in words) ([2]; comparison of maximum effects in absence and presence of the antagonist, listed as MP 194): competitively antagonistically effective; also recorded: competitive antagonism; strength of activity compared with ipratropium bromide (in words) ([2]; comparison of pA2 values, t-test, listed as MP 194): equivalent to the reference substance ipratropium bromide; also recorded: does not differ significantly; also recorded: equal to the reference substance ipratropium bromide; antagonism against acetyl-β-methylcholine chloride / anticholinergic effectiveness (in words) ([2]; listed as MP 194): comparable, dosage-dependent antagonism; also recorded: clear anticholinergic effectiveness

From US4780476A, “Azoniaspironortropanol esters as asthma therapeutics and broncholytics” (Madaus GmbH & Co., priority 1985, dated 1988)
